Results from publication PMC6514812, “[^18F]Fluoroethyltriazolyl Monocyclam Derivatives as Imaging Probes for the Chemokine Receptor CXCR4” (Molecules, 2019).
Blank lines part the entries; values can stand above or below the compound they belong to.

Columns and labels:
[1] = molecular target: T1, CXCR4 (Homo sapiens, UniProt P61073); experiment: Competition binding assay vs [^68Ga]Pentixafor in PC3-CXCR4 cells; conditions: for IC50: vs 100 nM [^68Ga]Pentixafor, PC3-CXCR4 cells, 60 min 37 °C; for Hill Slope, Competitive Binding Experiment: vs [^68Ga]Pentixafor, value ± SD
T1 construct: expressed in transfected cells; host or cells: PC3 (human prostate cancer) cells stably transduced with CXCR4
T1 sequence (P61073 whole entry): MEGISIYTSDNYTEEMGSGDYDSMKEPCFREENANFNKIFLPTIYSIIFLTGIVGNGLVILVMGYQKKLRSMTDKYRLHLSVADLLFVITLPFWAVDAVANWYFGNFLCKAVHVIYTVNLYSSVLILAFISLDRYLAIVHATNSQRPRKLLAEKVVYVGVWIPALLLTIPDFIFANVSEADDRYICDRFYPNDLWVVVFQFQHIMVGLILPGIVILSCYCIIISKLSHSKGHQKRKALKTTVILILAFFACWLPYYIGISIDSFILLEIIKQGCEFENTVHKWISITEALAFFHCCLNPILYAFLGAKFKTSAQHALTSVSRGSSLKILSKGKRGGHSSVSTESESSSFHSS
Method: (§1) PC3-CXCR4 cells were plated in 12-well plates at a density of 500,000 cells per well and incubated for 48 h at 37 °C/5% CO2. Prior to the binding assay the cells were incubated in fresh media and 370–555 kBq of [^68Ga]Pentixafor or [^18F]RPS-544 was added to each well. The corresponding concentration of [^68Ga]Pentixafor in each well was 100 nM, and the concentration of [^18F]RPS-544 was approximately 5 pM. Then non-radioactive ligands were added to give a final ligand concentration in the range 0.001–10,000 nM. A total of eight concentrations were studied, and each concentration was tested in triplicate. The cells were incubated for 60 min at 37 °C/5% CO2. The media was removed under suction, the cells were washed with cold PBS 1X and detached and transferred to tubes for counting in 1 M NaOH. The cells were counted in a Wizard^2 Gamma Counter (PerkinElmer, Waltham, MA, USA). Non-specific binding was subtracted, and the IC50 values were determined by assuming a simple competitive binding interaction and fitting the data to a sigmoidal Hill plot in Origin 9.0 (OriginLab, Northampton, MA, USA). Potencies are expressed as IC50 ± standard deviation (Supplemental Data, Figure S7).

[2] = molecular target: T1, CXCR4; experiment: Saturation binding assay in PC3-CXCR4 cells; conditions: for Kd: saturation binding, PC3-CXCR4 cells; for Hill Slope, Saturation Binding Experiment: value ± SD
Method: To determine the dissociation constants, saturation binding assays were performed in the PC3-CXCR4 cells. The cells were plated as described above, and approximately 5 nM of the radioligand was added to each well. Then the corresponding non-radioactive ligand was added to give a final concentration in the range 0.001–10,000 nM. A total of eight concentrations were tested, and each concentration was tested in triplicate. The samples were washed and counted as described above. Non-specific binding was subtracted, and Kd values were determined by performing a nonlinear one site binding curve fit with equation y = (Bmax · x)/(Kd + x). Values are expressed as Kd ± standard deviation (Supplemental Data, Figure S8).

[3] = system: PC3-CXCR4 cells; experiment: Cell-associated activity in PC3-CXCR4 cells; format: cell-based, human; conditions: 1 h
Method: Maximum cell-associated activity was calculated by subtracting the cell uptake of the radioactive ligand at the highest non-radioactive ligand concentration of 10 µM (which we considered to be non-specific uptake/binding) from the cell uptake at the lowest non-radioactive ligand concentration of 10^−5 µM.

[4] = molecular target: T1, CXCR4; experiment: Competition binding assay vs [^18F]RPS-544 in PC3-CXCR4 cells; conditions: approx. 5 pM [^18F]RPS-544; p = 0.85
Method: as §1

[5] = Biodistribution in mice bearing bilateral PC3-WT/PC3-CXCR4 xenograft tumors; format: in vivo, BALB/c mice; conditions: 1 h p.i.
Method: (§2) All animal studies were approved by the Institutional Animal Care and Use Committee of Weill Cornell Medicine (Protocol Number: 2015-0066) and were undertaken in accordance with the guidelines set forth by the USPHS Policy on Humane Care and Use of Laboratory Animals. Animals were housed under standard conditions in approved facilities with 12 h light/dark cycles. Food and water was provided ad libitum throughout the course of the studies. Hairless 6-to-8-week old male BALB/c inbred athymic nude mice (Jackson Laboratory, Bar Harbor, ME, USA) were inoculated bilaterally with 0.2 mL of a 1:1 mixture of 10^7 PC3-CXCR4 cells in PBS and Matrigel (Corning, Tewksbury, MA, USA) subcutaneously in the left shoulder and 0.2 mL of a 1:1 mixture of 10^7 PC3-WT cells in PBS and Matrigel subcutaneously in the right shoulder. Imaging and biodistribution studies were performed three weeks post-implantation, when tumors were approximately 100–300 mm^3.
(§3) For the biodistribution studies, tumor-bearing animals (n = 5/compound/time point) were injected intravenously with 50–100 μL of a 9% v/v EtOH/saline solution containing approximately 1.1 MBq of the radioligand. […] The mice were euthanized at 1 or 2 h p.i. and tissues including blood, heart, lungs, liver, small intestine, large intestine, stomach (with contents), spleen, pancreas, kidneys, muscle, bone, PC3-WT tumors, PC3-CXCR4 tumors, and tail were collected. All organs were weighed and placed in test tubes for counting in a Wizard^2 Gamma Counter (PerkinElmer, Waltham, MA, USA). For comparison, 1% injected activity standards were prepared and counted along with the tissue samples. The tails were counted to correct for any dose extravasation. Activity in each tissue was corrected for decay and for injected activity and expressed as percent injected dose per gram of tissue (%ID/g) ± standard error.

[6] = system: PC3-CXCR4 xenograft tumors; experiment: as above; format: in vivo, BALB/c mice; conditions: 1 h p.i.
Method: as §2, §3

[7] = blocked by co-injection of 5 mg/kg AMD-3100

IC50 [1]: 398 ± 41 nM | Hill Slope, Competitive Binding Experiment [1]: 1.75 ± 0.33 | Kd [2]: 515 ± 68 nM | Hill Slope, Saturation Binding Experiment [2]: 2.01 ± 0.22 | IC50 vs [^18F]RPS-544 compared with IC50 vs [^68Ga]Pentixafor [4]: not significantly different
SMILES: FCCn1cc(-c2cc(CN3CCCNCCNCCCNCC3)ccc2CN2CCCNCCNCCCNCC2)nn1 [RPS-545]
Cell-Associated Activity [3]: 0.8 ± 0.1 %IA

Blood tissue activity [5]: 0.30±0.06 %ID/g | Bone tissue activity [6]: 1.22±0.03 %ID/g | Heart tissue activity [6]: 0.57±0.05 %ID/g | Kidneys tissue activity [6]: 12.17 ± 0.78 %ID/g | Large Intestine tissue activity [6]: 0.23±0.02 %ID/g | Liver tissue activity [6]: 3.69±0.21 %ID/g | Lungs tissue activity [6]: 0.60±0.08 %ID/g | Muscle tissue activity [6]: 0.67±0.08 %ID/g | PC3-CXCR4 Tumor Uptake [6]: 1.93 ± 0.18 %ID/g | PC3-CXCR4 Tumor-to-Tissue Ratio Blood [6]: 6.9 ± 0.2 | PC3-CXCR4 Tumor-to-Tissue Ratio Bone [6]: 1.4 ± 0.7 | PC3-CXCR4 Tumor-to-Tissue Ratio Kidneys [6]: 0.2 ± 0.1 | PC3-CXCR4 Tumor-to-Tissue Ratio Liver [6]: 0.5 ± 0.1 | PC3-CXCR4 Tumor-to-Tissue Ratio Lungs [6]: 3.3 ± 0.4 | PC3-CXCR4 Tumor-to-Tissue Ratio Muscle [6]: 2.2 ± 0.3 | PC3-CXCR4 Tumor-to-Tissue Ratio PC3-WT [6]: 2.0 ± 0.4 | PC3-WT tumor activity [6]: 0.91±0.19 %ID/g | Pancreas tissue activity [6]: 0.44±0.02 %ID/g | Small Intestine tissue activity [6]: 2.19±0.05 %ID/g | Spleen tissue activity [6]: 0.52±0.02 %ID/g | Stomach tissue activity [6]: 0.17±0.04 %ID/g | IC50 [1]: 356 ± 100 nM | Hill Slope, Competitive Binding Experiment [1]: 1.07 ± 0.36 | Kd [2]: 366 ± 70 nM | Hill Slope, Saturation Binding Experiment [2]: 1.12 ± 0.05 | IC50 vs [^18F]RPS-544 compared with IC50 vs [^68Ga]Pentixafor [4]: not significantly different
SMILES: FCCn1cc(-c2cc(CNCc3ccccn3)ccc2CN2CCCNCCNCCCNCC2)nn1 [RPS-533]
Cell-Associated Activity [3]: 2.1 ± 0.4 %IA

Blood tissue activity [5]: 0.21±0.07 %ID/g | Blood tissue activity [5, 7]: 0.27±0.06 %ID/g | Bone tissue activity [6]: 0.64±0.14 %ID/g | Heart tissue activity [6]: 0.13±0.03 %ID/g | Kidneys tissue activity [6]: 7.23 ± 2.66 %ID/g | Large Intestine tissue activity [6]: 0.43±0.10 %ID/g | Liver tissue activity [6]: 4.36±0.24 %ID/g | Lungs tissue activity [6]: 0.50±0.04 %ID/g | Muscle tissue activity [6]: 0.15±0.04 %ID/g | PC3-CXCR4 Tumor Uptake [6]: 2.52 ± 0.11 %ID/g | PC3-CXCR4 Tumor-to-Tissue Ratio Blood [6]: 11.9 ± 0.1 | PC3-CXCR4 Tumor-to-Tissue Ratio Bone [6]: 4.0 ± 0.2 | PC3-CXCR4 Tumor-to-Tissue Ratio Kidneys [6]: 0.3 ± 0.3 | PC3-CXCR4 Tumor-to-Tissue Ratio Liver [6]: 0.6 ± 0.1 | PC3-CXCR4 Tumor-to-Tissue Ratio Lungs [6]: 5.0 ± 0.1 | PC3-CXCR4 Tumor-to-Tissue Ratio Muscle [6]: 16.7 ± 0.1 | PC3-CXCR4 Tumor-to-Tissue Ratio PC3-WT [6]: 2.5 ± 0.3 | PC3-WT tumor activity [6]: 1.00±0.23 %ID/g | Pancreas tissue activity [6]: 0.26±0.05 %ID/g | Small Intestine tissue activity [6]: 0.54±0.06 %ID/g | Spleen tissue activity [6]: 0.92±0.08 %ID/g | Stomach tissue activity [6]: 0.14±0.07 %ID/g | Bone tissue activity [6, 7]: 0.31±0.07 %ID/g | Heart tissue activity [6, 7]: 0.18±0.08 %ID/g | Kidneys tissue activity [6, 7]: 4.41±1.01 %ID/g | Large Intestine tissue activity [6, 7]: 0.22±0.03 %ID/g | Liver tissue activity [6, 7]: 3.15±0.70 %ID/g | Lungs tissue activity [6, 7]: 0.49±0.09 %ID/g | Muscle tissue activity [6, 7]: 0.45±0.67 %ID/g | PC3-CXCR4 tumor activity [6, 7]: 1.20±0.43 %ID/g | PC3-WT tumor activity [6, 7]: 0.85±0.21 %ID/g | Pancreas tissue activity [6, 7]: 0.25±0.04 %ID/g | Small Intestine tissue activity [6, 7]: 0.80±0.11 %ID/g | Spleen tissue activity [6, 7]: 0.70±0.11 %ID/g | Stomach tissue activity [6, 7]: 0.20±0.20 %ID/g | IC50 [1]: 515 ± 68 nM | Hill Slope, Competitive Binding Experiment [1]: 1.18 ± 0.07 | Kd [2]: 314 ± 48 nM | Hill Slope, Saturation Binding Experiment [2]: 0.93 ± 0.14
SMILES: FCCn1cc(CCNCc2ccc(CN3CCCNCCNCCCNCC3)cc2)nn1 [RPS-552]
Cell-Associated Activity [3]: 3.5 ± 0.1 %IA
